# Laboratory results: ChEMBL document CHEMBL6121015, “Correction of aberrant splicing of ELP1 pre-mRNA by kinetin derivatives - A structure activity relationship study” (Eur J Med Chem, 2025)
# Active and inactive are the calls of the source. The calls are words filed in the database; no cut-off is given here.
# Tests used:
# [1] = test system: GM04663; assay: Corrector activity at aberrant splicing of ELP1 gene […] mutant (unknown origin) in human GM04663 cells assessed as increase in exon 20 inclusion at 50 uM by Capillary electrophoresis; assay type: cell-based
# [2] = test system: GM04663; assay: Corrector activity at aberrant splicing of ELP1 gene […] mutant (unknown origin) in human GM04663 cells assessed as increase in exon 20 inclusion at 10 uM by Capillary electrophoresis; assay type: cell-based
# [3] = test system: BJ; assay: Cytotoxicity against human BJ cell assessed as decrease in resazurin signal incubated with resazurin for 3 hrs by M2 reader analysis; assay type: toxicity, cell-based; design: scale not given: the % may be the effect or the level left
# [4] = Cytotoxicity against human GM04663 cell assessed as decrease in resazurin signal incubated with resazurin for 48 hrs by M2 reader analysis; assay type: functional; design: scale not given: the % may be the effect or the level left
# [5] = test system: ARPE-19; assay: Cytotoxicity against human ARPE-19 cell assessed as decrease in resazurin signal incubated with resazurin for 1 hrs by M2 reader analysis; assay type: toxicity, cell-based; design: scale not given: the % may be the effect or the level left; details: arpe-19, 1 h
# [6] = test system: HaCaT; assay: Cytotoxicity against human HaCaT cell assessed as decrease in resazurin signal incubated with resazurin for 3 hrs by M2 reader analysis; assay type: toxicity, cell-based; design: scale not given: the % may be the effect or the level left
SMILES,Activity [2],also measured
Nc1c(Cl)ncnc1NCc1ccco1,,Activity [1]: Active
CCCOc1nc2c(NCc3ccco3)ncnc2[nH]1,Active,
Cn1cnc2nc(Cl)nc(NCc3ccco3)c21,Active,
Nc1nc(Cl)cc(NCc2ccco2)n1,,Activity [1]: Active
Ic1nc2c(NCc3ccco3)ncnc2[nH]1,inactive,
CN(C)CCOc1nc2c(NCc3ccco3)ncnc2[nH]1,Active,
CN(C)CCNc1nc2c(NCc3ccco3)ncnc2[nH]1,Active,
c1coc(CNc2ncnc3[nH]c(NCCCN4CCOCC4)nc23)c1,Active,
CCCn1cnc2ncnc(NCc3ccco3)c21,inactive,
Cn1cnc2ncnc(NCc3ccco3)c21,Active,
c1ccc(Nc2nc3c(NCc4ccco4)ncnc3[nH]2)cc1,Active,Activity [3]: > 20%; Activity [4]: >20%; Activity [5]: < 20%; Activity [6]: > 20%
CN(Cc1ccco1)c1cc(Cl)nc(N)n1,,Activity [1]: Active
c1csc(CNc2[nH]cnc3ncnc2-3)c1,inactive,
Clc1nc(NCc2ccco2)c2[nH]cnc2n1,Active,Activity [3]: > 20%; Activity [4]: >20%; Activity [5]: < 20%; Activity [6]: > 20%
NCCNc1nc2c(NCc3ccco3)ncnc2[nH]1,Active,
Nc1nc2c(NCc3ccco3)ncnc2[nH]1,Active,
Fc1nc(NCc2ccco2)c2nc[nH]c2n1,Active,Activity [3]: > 20%; Activity [4]: >20%; Activity [5]: < 20%; Activity [6]: > 20%
CSc1nc2c(NCc3ccco3)ncnc2[nH]1,Active,
C=CCNc1nc2c(NCc3ccco3)ncnc2[nH]1,Active,
Clc1nc(NCc2ccco2)c2nc(Cl)[nH]c2n1,Active,
c1coc(CNc2ncnc3[nH]cnc23)c1,Active,
Clc1cc(NCc2ccco2)ncn1,,Activity [1]: Active
c1ccc(CNc2nc3c(NCc4ccco4)ncnc3[nH]2)cc1,Active,Activity [3]: > 20%; Activity [4]: >20%; Activity [5]: < 20%; Activity [6]: > 20%
O=c1[nH]c2ncnc(NCc3ccco3)c2[nH]1,Active,
COc1nc2c(NCc3ccco3)ncnc2[nH]1,Active,
Nc1nc2c(NCc3ccco3)nc(Cl)nc2[nH]1,inactive,
